Legend:
Ets-1 = experiment: gene expression with TPA induction, RT-PCR; format: cell-based; details: HepG2
Method: (§1) MMP and Ets-1, the expression of which is inhibited by menatetrenone, are known to be genes that are induced by 12-O-tetradecanoylphorbol-13-acetate (TPA) as well as uPA (urokinase plasminogen activator) and the like. In order to discover whether menatetrenone controls expression of genes activated by TPA, TPA was added to HepG2 cultured hepatic cancer cells at a concentration of 20 nM, menatetrenone was then added thereto, and RT-PCR and Western blot were performed to investigate whether expression of the aforementioned gene expression of which was induced by TPA was affected. […] On the other hand, the uPA receptor uPAR and the uPA inhibitor PAI were not affected.

MMP-1 [1] = experiment: gene expression with TPA induction, RT-PCR; format: cell-based; details: HepG2
Method: as §1

MMP-3 [2] = experiment: gene expression with TPA induction, RT-PCR; format: cell-based; details: HepG2
Method: as §1

MMP-7 [3] = experiment: gene expression with TPA induction, RT-PCR; format: cell-based; details: HepG2
Method: as §1

[4] = tested on: uPA (urokinase plasminogen activator); experiment: gene expression with TPA induction, RT-PCR; format: cell-based; details: HepG2
Method: as §1

uPA inhibitor PAI = experiment: gene expression with TPA induction, RT-PCR; format: cell-based; details: HepG2; 20 nM of TPA alone
Method: as §1

uPA receptor uPAR = experiment: gene expression with TPA induction, RT-PCR; format: cell-based; details: HepG2; 20 nM of TPA alone
Method: as §1

[5] = tested on: HLE hepatic cancer cell line; experiment: cell proliferation by WST assay; format: cell-based; details: 10^−6 to 10^−4 M, 48 hours, vs control without menatetrenone
Method: (§2) Menatetrenone was added at concentrations of 0 M, 10^−6 M, 10^−5 M and 10^−4 M to HepG2, Huh7, Hep3B and HLE hepatic cancer cell lines, and cell proliferation was studied by WST assay after 48 hours.

[6] = tested on: Hep3B hepatic cancer cell line; experiment: cell proliferation by WST assay; format: cell-based; details: 10^−6 to 10^−4 M, 48 hours, vs control without menatetrenone
Method: as §2

[7] = tested on: HepG2 hepatic cancer cell line; experiment: cell proliferation by WST assay; format: cell-based; details: 10^−6 to 10^−4 M, 48 hours, vs control without menatetrenone
Method: as §2

[8] = tested on: Huh7 hepatic cancer cell line; experiment: cell proliferation by WST assay; format: cell-based; details: 10^−6 to 10^−4 M, 48 hours, vs control without menatetrenone
Method: as §2

p21 = experiment: CDK inhibitor expression by RT-PCR and Western blot in hepatic cancer cells; format: cell-based; details: 10^−6 to 10^−4 M
Method: (§3) To investigate the mechanism of inhibition of cell proliferation, genes involved in promoting the cell cycle were focused on, and changes caused by addition of menatetrenone in the amount of expression of CDK inhibitors p21, p27 and p16 which inhibit cyclin dependent kinase (CDK), an enzyme which promotes the cell cycle, were analyzed by the RT-PCR and Western blot methods. In this test, menatetrenone was added at concentrations of 0 M, 10^−6 M, 10^−5 M and 10^−4 M to HepG2, Huh7, Hep3B and HLE hepatic cancer cell lines, RNA was collected after 48 hours, and 1 μg of total RNA was subjected to RT-PCR to investigate expression of p21, p27 and p16. RT-PCR was performed on GAPDH (glyceraldehyde 3-phosphate dehydrogenase) as a control. In this test, menatetrenone was added at concentrations of 0 M, 10^−6 M, 10^−5 M and 10^−4 M to HepG2, Huh7, Hep3B and HLE hepatic cancer cell lines, proteins were extracted from the various cells, subjected to SDS-PAGE electrophoresis, blotted on PVP membranes and then incubated with p21 and p27 antibodies, and p21 and p27 protein expression was investigated by ECL.

p27 = experiment: as above; format: cell-based; details: 10^−6 to 10^−4 M
Method: as §3

p16 = experiment: CDK inhibitor expression by RT-PCR in hepatic cancer cells; format: cell-based; details: 10^−6 to 10^−4 M
Method: as §3, with “control.” for “control. In this test, menatetrenone was added at concentrations of 0 M, 10^−6 M, 10^−5 M and 10^−4 M to HepG2, Huh7, Hep3B and HLE hepatic cancer cell lines, proteins were extracted from the various cells, subjected to SDS-PAGE electrophoresis, blotted on PVP membranes and then incubated with p21 and p27 antibodies, and p21 and p27 protein expression was investigated by ECL.”

HLE hepatic cancer cells = experiment: cell cycle analysis by flow cytometry (FACS); format: cell-based; details: 10^−6 to 10^−4 M, 48 hours
Method: (§4) To investigate the effects of menatetrenone on the cell cycles of cancer cells, distributions according to DNA amount in hepatic cancer cells to which menatetrenone had been added were analyzed by flow cytometry (FACS). In this test, menatetrenone was added at concentrations of 0 M, 10^−6 M, 10^−5 M and 10^−4 m to HepG2, Huh7, Hep3B and HLE hepatic cancer cells, and changes in the cell cycles were observed by FACS 48 hours later.

[9] = tested on: Hep3B hepatic cancer cells; experiment: cell cycle analysis by flow cytometry (FACS); format: cell-based; details: 10^−6 to 10^−4 M, 48 hours
Method: as §4

[10] = tested on: HepG2 hepatic cancer cells; experiment: cell cycle analysis by flow cytometry (FACS); format: cell-based; details: 10^−6 to 10^−4 M, 48 hours
Method: as §4

[11] = tested on: Huh7 hepatic cancer cells; experiment: cell cycle analysis by flow cytometry (FACS); format: cell-based; details: 10^−6 to 10^−4 M, 48 hours
Method: as §4

[12] = tested on: hepatic cancer cells (HepG2); experiment: Matrigel invasion test (double chamber); format: cell-based; details: 10^−6 to 10^−4 M, 24 hours, NIH3T3 feeder
Method: To investigate the effect of menatetrenone in inhibiting invasion and metastasis of cancer cells, menatetrenone was added to hepatic cancer cells (HepG2) at concentrations of 0 M, 10^−6 M, 10^−5 M and 10^−4 M, and ability of the cancer cells to invade Matrigel was measured. In this test, cancer cells were spread on Matrigel which had been coated on the upper chamber of a double chamber, menatetrenone was added thereto. NIH3T3 cells were spread on the lower chamber as a feeder. The number of cells that had passed through the Matrigel and migrated to the bottom of the upper chamber after 24 hours was observed microscopically.

GAPDH = experiment: RT-PCR of invasion-related factors in hepatic cancer cells; format: cell-based; details: hepatic cancer cells (HepG2, Hep3B, Huh7)
Method: (§5) Test was performed by RT-PCR to investigate MMP expression. This test was to investigate expression of various MMPs (MMP-1, MMP-2, MMP-3, MMP-7, MMP-9 and MMP-14 (MT1-MMP)) and of transcription factor Ets-1 that affect MMP expression and the extracellular matrix receptor β1 integrin when menatetrenone was added to various hepatic cancer cells (HepG2, Hep3B, Huh7).

MMP-14 (MT1-MMP) = experiment: as above; format: cell-based; details: hepatic cancer cells (HepG2, Hep3B, Huh7)
Method: as §5

MMP-1 [13] = experiment: as above; format: cell-based; details: hepatic cancer cells (HepG2, Hep3B, Huh7)
Method: as §5

MMP-3 [14] = experiment: as above; format: cell-based; details: hepatic cancer cells (HepG2, Hep3B, Huh7)
Method: as §5

MMP-7 [15] = experiment: as above; format: cell-based; details: hepatic cancer cells (HepG2, Hep3B, Huh7)
Method: as §5

[16] = tested on: transcription factor Ets-1; experiment: as above; format: cell-based; details: hepatic cancer cells (HepG2, Hep3B, Huh7)
Method: as §5

β1 integrin = experiment: as above; format: cell-based; details: hepatic cancer cells (HepG2, Hep3B, Huh7)
Method: as §5

MMP-1 [17] = experiment: Western blot of MMP protein expression in hepatic cancer cells; format: cell-based; details: hepatic cancer cells (HepG2, Hep3B, Huh7)
Method: (§6) Testing was performed by Western blot to investigate MMP expression. In this test protein expressions of MMP-1 and MMP-3 were investigated when menatetrenone was added to various hepatic cancer cells (HepG2, Hep3B, Huh7).

MMP-3 [18] = experiment: as above; format: cell-based; details: hepatic cancer cells (HepG2, Hep3B, Huh7)
Method: as §6

AP-1 = experiment: gel shift assay of transcription factor binding activity; format: cell-based; details: HepG2 nuclear proteins after 24 hours; 32P-labeled DNA probe
Method: (§7) MMP have binding sites for transcription factors AP-1, Ets-1, Tcf/Lef and the like at common to their promoter regions and which are known to regulate MMP expression. Gel shift assay was performed to investigate whether the binding activity of transcription factors AP-1 and Tcf/Lef, which regulate MMP expression, is affected by addition of menatetrenone. In this test menatetrenone was added to HepG2 hepatic cancer cells, nuclear proteins were extracted after 24 hours and reacted with double-stranded DNA having binding sites for AP-1 and Tcf/Lef labeled with ^32P, and gel shift assay was performed. […] Reduction and shifting of the band was also seen with anti-c-fos antibodies (“S” in the Figure).

Tcf/Lef = experiment: as above; format: cell-based; details: HepG2 nuclear proteins after 24 hours; 32P-labeled DNA probe
Method: as §7

MMP-1 promoter = experiment: MMP gene promoter activity test (luciferase reporter); format: cell-based; details: Huh7 cells, 48 hours
Method: (§8) Next, promoter reporter genes for MMP-1, MMP-3 and MMP-7 were introduced into Huh7 hepatic cancer cells, and the effect of menatetrenone on the activity of these MMP promoters was investigated. The MMP-1, MMP-3 and MMP-7 promoter-luciferase reporter plasmids used were prepared by replacing the reporter gene part of the MMP promoter-CAT reporter plasmid reported in Ozaki I, Mizuta T, Zhang H, Yoshimura T, Kawazoe S, Eguchi Y, Yasutake T, Hisatomi A, Sakai T and Yamamoto K, “Induction of multiple matrix metalloproteinase genes in human hepatocellular carcinoma by hepatocyte growth factor via a transcription factor Ets-1,” Hepatol. Res. 27, 288-300. The various MMP-luciferase plasmids were introduced into Huh7 hepatic cancer cells using lipofectamine, menatetrenone was added at various concentrations, and after 48 hours the cells were collected and luciferase activity measured to investigate the effects of menatetrenone on MMP-1, MMP-3 and MMP-7 gene promoter activity.

MMP-3 promoter = experiment: as above; format: cell-based; details: Huh7 cells, 48 hours
Method: as §8

MMP-7 promoter = experiment: as above; format: cell-based; details: Huh7 cells, 48 hours
Method: as §8

MMP-1 [19] = experiment: gene expression with TPA induction, Western blot; format: cell-based; details: HepG2, 20 nM TPA then menatetrenone
Method: as §1

MMP-3 [20] = experiment: gene expression with TPA induction, Western blot; format: cell-based; details: HepG2, 20 nM TPA then menatetrenone
Method: as §1

[21] = cited from earlier work
[22] = cited from earlier work; remark: listed apart in the source

CCCCCCCCCCCCCC(=O)O[C@@H]1[C@@H](C)[C@@]2(O)[C@@H](C=C(CO)C[C@]3(O)C(=O)C(C)=C[C@@H]23)[C@@H]2C(C)(C)[C@]12OC(C)=O [TPA, 12-O-tetradecanoylphorbol-13-acetate]
mRNA expression of Ets-1 (Ets-1; 20 nM of TPA alone): increased
mRNA expression of MMP-1 (MMP-1 [1]; 20 nM of TPA alone): increased
mRNA expression of MMP-3 (MMP-3 [2]; 20 nM of TPA alone): increased
mRNA expression of MMP-7 (MMP-7 [3]; 20 nM of TPA alone): increased
mRNA expression of uPA ([4]; 20 nM of TPA alone): increased
mRNA expression of PAI (uPA inhibitor PAI): not affected
mRNA expression of uPAR (uPA receptor uPAR): not affected

CC(C)=CCC/C(C)=C/CC/C(C)=C/CC/C(C)=C/CC1=C(C)C(=O)c2ccccc2C1=O [menatetrenone, 2-methyl-3-tetraprenyl-1,4-naphthoquinone]
cell proliferation [5]: dose-dependently inhibited
cell proliferation [6]: dose-dependently inhibited
cell proliferation [7]: dose-dependently inhibited
cell proliferation [8]: dose-dependently inhibited
p21 expression (p21; Hep3B cells): slight increase
p21 mRNA expression (p21; HepG2 cells, 48 hours): increases
p21 expression (p21; Huh7 cells): no changes
p27 expression (p27; Hep3B cells): no change
p27 mRNA expression (p27; HepG2 cells, 48 hours): increases
p27 expression (p27; Huh7 cells): no changes
p16 expression (p16; Hep3B cells): slight increase
p16 expression (p16; Huh7 cells): no changes
G2-phase cells (HLE hepatic cancer cells): decreased
proportion of G1-phase cells (HLE hepatic cancer cells): increased dose-dependently
G2-phase cells [9]: decreased
proportion of G1-phase cells [9]: increased dose-dependently
G2-phase cells [10]: decreased
proportion of G1-phase cells [10]: increased dose-dependently
G2-phase cells [11]: decreased
proportion of G1-phase cells [11]: increased dose-dependently
ability of cancer cells to invade Matrigel [12]: dose-dependently inhibits
expression of GAPDH mRNA (GAPDH): no changes
expression of mRNA of MMP-14 (MMP-14 (MT1-MMP)): dose-dependently inhibited
expression of mRNA of MMP-1 (MMP-1 [13]): dose-dependently inhibited
expression of mRNA of MMP-3 (MMP-3 [14]): dose-dependently inhibited
expression of mRNA of MMP-7 (MMP-7 [15]): dose-dependently inhibited
expression of the transcription factor Ets-1 [16]: dose-dependently inhibited
expression of β1 integrin mRNA (β1 integrin): no changes
protein expression of MMP-1 (MMP-1 [17]): inhibited
protein expression of MMP-3 (MMP-3 [18]): inhibited
binding activity of AP-1 (AP-1): dose-dependently inhibited
binding activity of Tcf/Lef (Tcf/Lef): did not affect
MMP-1 promoter activity (MMP-1 promoter): dose-dependently inhibited
decrease of MMP-1 promoter activity (MMP-1 promoter): ~50%
MMP-3 promoter activity (MMP-3 promoter): dose-dependently inhibited
MMP-7 promoter activity (MMP-7 promoter): dose-dependently inhibited
decrease of MMP-7 promoter activity (MMP-7 promoter): ~50%
TPA-induced mRNA expression of Ets-1 (Ets-1; 20 nM TPA then menatetrenone): dose-dependently inhibited
TPA-induced mRNA expression of MMP-1 (MMP-1 [1]; 20 nM TPA then menatetrenone): dose-dependently inhibited
TPA-induced mRNA expression of MMP-3 (MMP-3 [2]; 20 nM TPA then menatetrenone): dose-dependently inhibited
TPA-induced mRNA expression of MMP-7 (MMP-7 [3]; 20 nM TPA then menatetrenone): dose-dependently inhibited
TPA-induced mRNA expression of uPA ([4]; 20 nM TPA then menatetrenone): dose-dependently inhibited
TPA-induced expression of MMP-1 at the protein level (MMP-1 [19]): dose-dependently inhibited
TPA-induced expression of MMP-3 at the protein level (MMP-3 [20]): dose-dependently inhibited
solubility in water [21]: dissolves very little
stability to light [22]: easily decomposed by light

— patent US20060194883A1, “Mmp expression inhibitor” (EISAI CO., LTD, priority 2003, published 2006)
